In BindingDB's records for patent US9926282 (Bristol-Myers Squibb, 2018) one finds IC50 data, which are given here for 9 molecules.

pIC50: −log10 of the molar value. Where only a bound is given, the exact number is not on record here.

For this assay, the target named is Rho-associated protein kinase 1 (Homo sapiens, UniProt Q13464). In words: In Vitro Assay. On the procedure: Compounds were dissolved in DMSO so that the final concentration of DMSO was <2%, and the reaction was initiated with Rho kinase variants. After incubation, the reaction was terminated by the addition of EDTA and the phosphorylated and non-phosphorylated peptides separated using a LABCHIP 3000 Reader (Caliper Life Sciences). […] Compounds were tested in dose-response format, and the inhibition of kinase activity was calculated at each concentration of compound.
Rho-associated protein kinase 1, sequence (Q13464 whole entry): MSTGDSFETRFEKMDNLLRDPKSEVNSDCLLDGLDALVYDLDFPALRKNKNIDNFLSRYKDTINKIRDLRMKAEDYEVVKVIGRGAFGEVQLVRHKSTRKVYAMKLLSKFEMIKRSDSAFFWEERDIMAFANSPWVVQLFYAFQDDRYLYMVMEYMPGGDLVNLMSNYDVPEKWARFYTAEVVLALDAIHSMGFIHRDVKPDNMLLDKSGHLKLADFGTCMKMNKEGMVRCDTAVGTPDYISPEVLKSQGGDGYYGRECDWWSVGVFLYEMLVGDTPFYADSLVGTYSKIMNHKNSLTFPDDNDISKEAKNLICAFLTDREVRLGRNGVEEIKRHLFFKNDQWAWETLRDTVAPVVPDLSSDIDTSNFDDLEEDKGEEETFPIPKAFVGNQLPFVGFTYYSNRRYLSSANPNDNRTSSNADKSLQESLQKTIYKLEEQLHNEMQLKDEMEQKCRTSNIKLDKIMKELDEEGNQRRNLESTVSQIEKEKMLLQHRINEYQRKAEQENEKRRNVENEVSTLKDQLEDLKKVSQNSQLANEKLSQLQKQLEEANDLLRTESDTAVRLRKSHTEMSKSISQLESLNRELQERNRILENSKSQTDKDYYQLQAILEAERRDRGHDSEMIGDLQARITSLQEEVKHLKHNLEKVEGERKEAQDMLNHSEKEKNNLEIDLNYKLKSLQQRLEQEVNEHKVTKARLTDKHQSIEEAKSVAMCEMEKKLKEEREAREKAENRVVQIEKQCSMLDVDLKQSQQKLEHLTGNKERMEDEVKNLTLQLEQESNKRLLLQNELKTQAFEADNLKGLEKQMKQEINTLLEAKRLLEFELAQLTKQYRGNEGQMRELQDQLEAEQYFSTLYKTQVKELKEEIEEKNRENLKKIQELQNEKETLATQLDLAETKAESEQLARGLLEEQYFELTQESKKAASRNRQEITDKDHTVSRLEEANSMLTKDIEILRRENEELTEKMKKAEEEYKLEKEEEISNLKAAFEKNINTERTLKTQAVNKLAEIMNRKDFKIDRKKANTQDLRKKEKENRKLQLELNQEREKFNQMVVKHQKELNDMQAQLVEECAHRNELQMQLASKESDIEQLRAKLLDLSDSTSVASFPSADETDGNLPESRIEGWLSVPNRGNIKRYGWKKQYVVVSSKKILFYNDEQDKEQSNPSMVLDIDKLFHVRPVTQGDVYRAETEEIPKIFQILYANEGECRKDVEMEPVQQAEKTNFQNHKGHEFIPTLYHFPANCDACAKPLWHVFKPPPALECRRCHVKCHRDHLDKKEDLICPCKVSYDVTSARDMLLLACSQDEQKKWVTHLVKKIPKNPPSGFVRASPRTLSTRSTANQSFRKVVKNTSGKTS
For the molecule `O=C(Nc1ccc(-c2n[nH]c(=O)c3ccccc23)cc1)c1cnn(CC(O)C(F)(F)F)c1` (centres undefined) [US9926282, Example 378], the negative-log IC50 (pIC50) was over 7.00.
As to `CCCn1cc(C(=O)Nc2ccc(-c3n[nH]c(=O)c4ccccc34)cc2)cn1` [US9926282, Example 382], the pIC50 is over 7.00.
As for `O=C(Nc1ccc(-c2n[nH]c(=O)c3ccccc23)cc1)c1cc2ncccn2n1` [US9926282, Example 102], the figure is over 7.00; as for `O=C(Nc1ccc(-c2n[nH]c(=O)c3ccccc23)cc1)c1nn(CC2CCNCC2)c2ccccc12` [US9926282, Example 342], over 7.00; as for `CCc1c(C(=O)Nc2ccc(-c3n[nH]c(=O)c4ccccc34)cc2)nnn1-c1cccc(Cl)c1` [US9926282, Example 225], over 7.00.
With `O=C(Nc1ccc(-c2n[nH]c(=O)c3ccccc23)cc1)c1cnn(C2CCCC2)c1` [US9926282, Example 374] the figure was over 7.00; with `O=C(Nc1ccc(-c2n[nH]c(=O)c3ccccc23)cc1)c1c[nH]c2ncc(F)cc12` [US9926282, Example 120], over 7.00; with `O=C(Nc1ccc(-c2n[nH]c(=O)c3ccccc23)c(Cl)c1)c1nn(CC2CNC2)c2ccccc12` [US9926282, Example 327], over 7.00.
Consider `O=C(Nc1ccc(-c2n[nH]c(=O)c3ccccc23)cc1)c1cnn(C2CCCCC2)c1` [US9926282, Example 373], for which the negative-log IC50 (pIC50) is over 7.00.

The term pIC50 denotes the IC50 on a negative log10 scale, so that one unit is a factor of ten.
